Measurements as given in patent US12679878B2, “CRF2 receptor agonists and their use in therapy” (SANOFI, priority 2020, dated 2026).
Like-named read-outs stand apart in the source and are kept apart here. Starred links: 1 amine or outer side, 2 acyl side, 3 side chain; linkers in the order of their positions; H or OH if unused. Non-standard residues stand in square brackets, D forms with d. Residues, ends and D or L forms follow the SMILES beside them. Groups on a side chain read outwards from the residue. *: point of attachment. C20 diacid = O=C(O)CCCCCCCCCCCCCCCCCCC(=O)*; C18 diacid = O=C(O)CCCCCCCCCCCCCCCCC(=O)*; γGlu = O=C(O)[C@H](CCC(=O)[*:2])N[*:1]; Palmitoyl = CCCCCCCCCCCCCCCC(=O)*; AEEA = NCCOCCOCC(=O)O; Aib = CC(C)(N)C(=O)O

Assays:
human CRF2α receptor = molecular target: T1, human CRF2α receptor (Homo sapiens, UniProt Q13324); experiment: cAMP agonism at human CRF2 α receptor in TeloHEAC cells (Example 7); type: cell-based; conditions: cAMP HTRF, TeloHEAC cells stably expressing human CRF2 α
T1 construct: expressed in transfected cells; host or cells: TeloHEAC
T1 sequence (Q13324 1-411): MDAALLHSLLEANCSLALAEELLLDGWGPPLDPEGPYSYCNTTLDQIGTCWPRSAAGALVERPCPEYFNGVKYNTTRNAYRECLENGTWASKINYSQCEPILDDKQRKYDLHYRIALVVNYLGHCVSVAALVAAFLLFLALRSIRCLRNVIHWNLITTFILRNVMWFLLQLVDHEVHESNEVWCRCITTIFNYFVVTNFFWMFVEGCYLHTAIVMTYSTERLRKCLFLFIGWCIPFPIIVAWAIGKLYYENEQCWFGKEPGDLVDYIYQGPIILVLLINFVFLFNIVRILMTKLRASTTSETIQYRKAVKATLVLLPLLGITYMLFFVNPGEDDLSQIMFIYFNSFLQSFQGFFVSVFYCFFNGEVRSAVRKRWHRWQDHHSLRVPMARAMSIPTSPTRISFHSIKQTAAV
Summary of the method: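 Cryopreserved cells are thawed, washed and resuspended in IBMX-containing (2 mM) HEPES-buffered HBSS with or without 0.1% HSA. Compound incubation runs 30 min at room temperature with 2000 cells per well, then cAMP is measured by time-resolved FRET. Potency is expressed as EC50, efficacy relative to urocortin 2 at 1000 nM.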

[1] = Physical stability, Thioflavin T fibrillation assay (Example 14); type: physicochemical; conditions: 3 mg/ml, 37° C. shaking
Protocol: The physical stability of the compounds was assessed using a Thioflavin T (ThT) assay.
The time course for fibril formation often follows the characteristic shape of a sigmoidal curve and can be separated into three regions: a lag phase, a fast growth phase, and a plateau phase. The typical fibril formation process starts with the lag phase in which the amount of partially folded peptide turned into fibrils is not significant enough to be detected. The lag-time corresponds to the time the critical mass of the nucleus is built. Afterwards, a drastic elongation phase follows and fibril concentration increases rapidly. Therefore, by measuring the increase in fluorescence intensity attributable to ThT as well as the lag time of the increase, the fibrillation tendency of a peptide can be determined, thereby providing a measure of the physical stability of the peptide.
In the present study, test compounds were diluted in buffer to a final concentration of 3 mg/ml.
The fibrillation tendencies of the peptides were determined under stress using a Fluoroskan Ascent FL or Fluoroskan Ascent fluorometer. […] Plates were sealed with Scotch Tape (Quiagen). Samples were stressed by continuous cycles of 10 s shaking at 960 rpm and 50 s rest period at 37° C. Fibril development was monitored by measuring fluorescence intensity every 20 minutes. For each sample, eight replicates were tested.

CRF1R receptor = molecular target: T2, CRF1R receptor (Homo sapiens, UniProt P34998); experiment: cAMP activity at anti-target CRF1R, CRF1R-overexpression CHO cell line (Example 9); type: cell-based; conditions: CRF1R-overexpression CHO cell line; for EC50: 0% HSA; for Emax: read-out: Emax (%)
T2 construct: host or cells: CHO-K1 clone 2
T2 sequence (P34998 24-415): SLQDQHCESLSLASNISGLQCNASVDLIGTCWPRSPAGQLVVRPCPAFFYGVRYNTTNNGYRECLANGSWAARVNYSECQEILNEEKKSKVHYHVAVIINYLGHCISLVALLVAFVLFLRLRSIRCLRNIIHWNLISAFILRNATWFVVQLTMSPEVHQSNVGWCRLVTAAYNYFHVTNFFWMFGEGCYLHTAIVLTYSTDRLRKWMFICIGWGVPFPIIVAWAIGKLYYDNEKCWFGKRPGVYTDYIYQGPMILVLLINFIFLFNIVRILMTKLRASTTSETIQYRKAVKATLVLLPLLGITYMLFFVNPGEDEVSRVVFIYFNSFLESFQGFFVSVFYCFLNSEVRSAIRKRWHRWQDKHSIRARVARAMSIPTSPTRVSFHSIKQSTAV
Summary of the method: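 cAMP accumulation was read by HTRF after 30 min at room temperature of compound treatment. Cells were cryopreserved CHO cells overexpressing CRF1R, plated at 2000/well in IBMX (2 mM)-containing HBSS/HEPES buffer with 0 or 0.1% HSA. Activity was normalized to 1000 nM UCN2 as 100%.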

[2] = Solubility in buffer systems by UPLC-UV (Example 13); type: physicochemical
Summary of the method: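 The supernatant was diluted 1:10 and quantified by UPLC-UV peak area against a reference standard curve, correcting for sequence-based extinction coefficients.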

rat CRF2R α receptor = experiment: cAMP agonism at rat CRF2R α receptor in A7R5 rat aortic smooth muscle cells (Example 8); type: cell-based; conditions: cAMP HTRF, A7R5 rat aortic smooth muscle cell line, 0% HSA
Summary of the method: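 Thawed cryopreserved A7R5 cells in HBSS/20 mM HEPES (0 or 0.1% HSA) with 2 mM IBMX, 2000 cells/well, were exposed to compound for 30 min at room temperature. cAMP was read by HTRF (665/620 nm ratio) after 1 h with lysis reagents. Activity was normalised to 1000 nM urocortin 2 as 100%, and EC50 was taken as the concentration giving 50% of maximal activation.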

[3] = 0% HSA, read-out: EC50 [nM], 0% HSA
[4] = Buffer A: 100 mM acetate buffer, pH 4.5
[5] = pH 4.5, Solubility in Buffer B [mg/ml]
[6] = Buffer B: 100 mM acetate buffer, pH 4.5, 2.7 mg/ml m-cresol

Structure (SMILES)	EC50 (human CRF2α receptor; [3]) [nM]	Increase in FI (fluorescence intensity) [1, 4]	Lag time [1, 4] [h]	EC50 (CRF1R receptor) [nM]	Emax (CRF1R receptor) [%]	solubility at 1 h [2, 5] [mg/mL]	EC50 (human CRF2α receptor; 0.1% HSA, read-out: EC50 [nM], 0.1% HSA) [nM]	Increase in FI (fluorescence intensity) [1, 6]	Lag time [1, 6] [h]	EC50 (rat CRF2R α receptor) [nM]	solubility at 1 h ([2]; pH 7.4, Solubility in Buffer C [mg/ml]) [mg/mL]
CCCCCCCCCCCCCCCC(=O)N[C@@H](CCC(=O)NCCCC[C@H](NC(=O)[C@H](CC(C)C)NC(=O)CNC(=O)[C@@H](NC(=O)[C@@H]1CCCN1C(=O)[C@@H](NC(=O)[C@H](CC(=O)O)NC(=O)[C@H](CC(C)C)NC(=O)[C@H](CO)NC(=O)[C@H](CC(C)C)NC(=O)[C@@H](NC(=O)[C@@H](N)[C@@H](C)CC)C(C)C)C(C)C)[C@@H](C)CC)C(=O)N[C@@H](CCC(N)=O)C(=O)N[C@@H](CCCCN)C(=O)N[C@@H](CC(C)C)C(=O)N[C@@H](CC(C)C)C(=O)N[C@@H](CCCCN)C(=O)N[C@@H](CCC(N)=O)C(=O)N[C@@H](CCC(=O)O)C(=O)N[C@@H](CCCCN)C(=O)N[C@@H](CCC(N)=O)C(=O)N[C@@H](CCC(=O)O)C(=O)N[C@@H](CCCCN)C(=O)N[C@@H](CCC(=O)O)C(=O)N[C@@H](CCCCN)C(=O)N[C@@H](CCC(N)=O)C(=O)N[C@@H](CCC(N)=O)C(=O)N[C@@H](C)C(=O)N[C@@H](CCC(=O)O)C(=O)N[C@H](C(=O)N[C@@H](CC(N)=O)C(=O)N[C@@H](C)C(=O)N[C@@H](CCCCN)C(=O)N[C@H](C(=O)N[C@@H](CC(C)C)C(=O)N[C@@H](C)C(=O)N[C@@H](CCC(N)=O)C(=O)N[C@H](C(N)=O)C(C)C)[C@@H](C)CC)[C@@H](C)O)C(=O)O [compound 4] (H-IVLSLDVPIGLK([γGlu-Palmitoyl])QKLLKQEKQEKEKQQAETNAKILAQV-NH2; N-terminus assumed)	0.04	Yes	18	> 1000	17.4	> 9.6	–	–	–	–	–
CCCCCCCCCCCCCCCC(=O)N[C@@H](CCC(=O)NCCCC[C@H](NC(=O)[C@H](CC(C)C)NC(=O)[C@H](CCCCN)NC(=O)[C@@H](NC(=O)[C@@H]1CCCN1C(=O)[C@H](NC(=O)[C@H](CC(=O)O)NC(=O)[C@H](CC(C)C)NC(=O)[C@H](CO)NC(=O)[C@H](CC(C)C)NC(=O)[C@@H](NC(=O)[C@@H](N)[C@@H](C)CC)C(C)C)C(C)C)[C@@H](C)O)C(=O)N[C@@H](CCC(N)=O)C(=O)N[C@@H](CCCCN)C(=O)N[C@@H](CC(C)C)C(=O)N[C@@H](CC(C)C)C(=O)N[C@@H](CCCCN)C(=O)N[C@@H](CCC(N)=O)C(=O)N[C@@H](CCC(=O)O)C(=O)N[C@@H](CCCNC(=N)N)C(=O)N[C@@H](CCC(N)=O)C(=O)N[C@@H](CCCNC(=N)N)C(=O)N[C@@H](CCCCN)C(=O)N[C@@H](CCC(=O)O)C(=O)N[C@@H](CCCNC(=N)N)C(=O)N[C@@H](CCC(=O)O)C(=O)N[C@@H](CCC(N)=O)C(=O)N[C@@H](C)C(=O)N[C@@H](CCC(=O)O)C(=O)N[C@@H](CCCCN)C(=O)N[C@@H](CC(N)=O)C(=O)N[C@@H](C)C(=O)N[C@@H](CCCNC(=N)N)C(=O)N[C@H](C(=O)N[C@@H](CC(C)C)C(=O)N[C@@H](C)C(=O)N[C@@H](CCCNC(=N)N)C(=O)N[C@H](C(N)=O)C(C)C)[C@@H](C)CC)C(=O)O [compound 7] (H-IVLSLD[dV]PTKLK([γGlu-Palmitoyl])QKLLKQERQRKEREQAEKNARILARV-NH2)	0.02	–	–	–	58.6	> 8.9	0.03	No	>45	–	–
CC[C@H](C)[C@H](NC(=O)[C@H](CCC(N)=O)NC(=O)[C@H](CCCCNC(=O)COCCOCCNC(=O)COCCOCCNC(=O)CC[C@H](NC(=O)CCCCCCCCCCCCCCCCCCC(=O)O)C(=O)O)NC(=O)[C@@H](NC(=O)[C@H](CCCCN)NC(=O)[C@@H](NC(=O)[C@@H]1CCCN1C(=O)[C@@H](NC(=O)[C@H](CC(=O)O)NC(=O)[C@H](CC(C)C)NC(=O)[C@H](CO)NC(=O)[C@H](CC(C)C)NC(=O)[C@@H](NC(=O)[C@@H](N)Cc1ccccc1)[C@@H](C)O)C(C)C)[C@@H](C)O)[C@@H](C)CC)C(=O)N[C@@H](CC(C)C)C(=O)N[C@@H](CC(C)C)C(=O)N[C@@H](CCCCN)C(=O)N[C@@H](CCC(N)=O)C(=O)N[C@@H](CCC(N)=O)C(=O)N[C@@H](CCCCN)C(=O)N[C@@H](CCC(N)=O)C(=O)N[C@@H](CCCCN)C(=O)N[C@@H](CCCCN)C(=O)N[C@@H](CCC(=O)O)C(=O)N[C@@H](CCCNC(=N)N)C(=O)N[C@@H](CCC(N)=O)C(=O)N[C@@H](CCC(N)=O)C(=O)N[C@@H](C)C(=O)N[C@@H](CCC(=O)O)C(=O)N[C@@H](CCCCN)C(=O)N[C@@H](CC(N)=O)C(=O)N[C@@H](CCCCN)C(=O)N[C@@H](CCC(N)=O)C(=O)N[C@@H](CC(C)C)C(=O)N[C@@H](CC(C)C)C(=O)N[C@@H](CCC(=O)O)C(=O)N[C@@H](CCCNC(=N)N)C(=O)N[C@H](C(N)=O)C(C)C [compound 60] (H-FTLSLDVPTKIK([AEEA-AEEA-γGlu-C20 diacid])QILLKQQKQKKERQQAEKNKQLLERV-NH2)	0.48	No	>45	> 1000	4.84	> 11.5	–	No	>45	1.35	> 11
CC[C@H](C)[C@H](N)C(=O)N[C@H](C(=O)N[C@@H](CC(C)C)C(=O)N[C@@H](CO)C(=O)N[C@@H](CC(C)C)C(=O)N[C@@H](CC(=O)O)C(=O)N[C@H](C(=O)N1CCC[C@H]1C(=O)N[C@H](C(=O)N[C@@H](CCCCN)C(=O)N[C@@H](CC(C)C)C(=O)N[C@@H](CCCCNC(=O)COCCOCCNC(=O)COCCOCCNC(=O)CC[C@H](NC(=O)CCCCCCCCCCCCCCCCC(=O)O)C(=O)O)C(=O)N[C@@H](CCC(N)=O)C(=O)N[C@H](C(=O)N[C@@H](CC(C)C)C(=O)N[C@@H](CC(C)C)C(=O)N[C@@H](CCC(=O)O)C(=O)N[C@@H](CCC(N)=O)C(=O)N[C@@H](CCC(=O)O)C(=O)N[C@@H](CCCNC(=N)N)C(=O)N[C@@H](CCC(N)=O)C(=O)N[C@@H](CCCCN)C(=O)N[C@@H](CCCCN)C(=O)N[C@@H](CCC(N)=O)C(=O)N[C@@H](CCCNC(=N)N)C(=O)N[C@@H](CCC(N)=O)C(=O)N[C@@H](CCC(N)=O)C(=O)N[C@@H](C)C(=O)N[C@@H](CCC(=O)O)C(=O)N[C@H](C(=O)N[C@@H](CC(N)=O)C(=O)NC(C)(C)C(=O)N[C@@H](CCC(N)=O)C(=O)N[C@H](C(=O)N[C@@H](CC(C)C)C(=O)N[C@@H](C)C(=O)N[C@@H](CCC(N)=O)C(=O)N[C@H](C(N)=O)C(C)C)[C@@H](C)CC)[C@@H](C)O)[C@@H](C)CC)[C@@H](C)CC)C(C)C)C(C)C [compound 72] (H-IVLSLDVPIKLK([AEEA-AEEA-γGlu-C18 diacid])QILLEQERQKKQRQQAETN[Aib]QILAQV-NH2; N-terminus assumed)	0.65	–	–	> 1000	2.58	> 10.7	–	Yes	34.7 to 41.0	4.31	–
